Laboratory results: BigSolDB 2.1

O=C(O)c1ccccc1O
solubility (mole fraction)
Details	298.15 K	303.15 K	308.15 K	313.15 K	318.15 K
in acetic acid	0.0531	0.0617	0.0709	0.0785	0.0903
in acetone	0.175	0.196	0.203	0.218	0.231
in ethyl acetate	0.13	0.14	0.154	0.165	0.179
in methanol	0.123	0.137	0.15	0.163	0.172

OC/C=C/c1ccccc1
solubility (mole fraction)
Details	253.15 K	258.15 K	263.15 K	268.15 K	273.15 K	278.15 K	283.15 K	288.15 K	293.15 K
in acetone	0.28	0.322	0.363	0.414	0.47	0.526	0.579	0.625	0.674
in ethanol	0.22	0.256	0.298	0.342	0.404	0.456	0.52	0.59	0.652
in ethyl acetate	0.208	0.243	0.29	0.351	0.416	0.486	0.547	0.61	0.659
in isobutanol	0.072	0.105	0.165	0.217	0.287	0.366	0.431	0.498	0.576
in isopropanol	0.195	0.242	0.288	0.33	0.394	0.446	0.512	0.582	0.649
in methanol	0.222	0.24	0.269	0.307	0.351	0.401	0.466	0.536	0.61
in methyl acetate	0.172	0.225	0.27	0.326	0.392	0.452	0.523	0.591	0.646
in n-butanol	0.125	0.162	0.214	0.269	0.342	0.412	0.479	0.553	0.608
in n-hexane	0.00446	0.00664	0.0104	0.0143	0.0194	0.0248	0.0294	0.0352	0.0418
in n-propanol	0.174	0.213	0.266	0.313	0.373	0.433	0.496	0.567	0.634
in sec-butanol	0.089	0.142	0.191	0.255	0.321	0.395	0.459	0.53	0.592
